Experimental data: patent publication US20170202939A1, “PERSONALIZED CANCER VACCINES AND METHODS THEREFOR” (Washington University, priority 2014, published 2017)
No end group written: not given here.

Test system: TCRβ clonotypes in CD8+ T cell populations
Test: TCRβ CDR3 sequencing of neoantigen-specific CD8+ T cells, pre- and post-vaccine
Design: species or system human
Experimental: Short-term ex-vivo expanded neoantigen-specific T cells were purified to 97-99% purity by cell sorting in a Sony SY3200 BSC (Sony Biotechnology) fitted with a 100 um nozzle, at 30 psi, using 561 nm (585/40) and 642 nm (665/30) lasers and cell pellets were prepared. DNA isolation and TCRβ sequencing was performed by Adaptive Biotechnologies and The Genome Institute at Washington University. Sequencing was performed at either survey (for neoantigen-specific TCRβ reference libraries) or deep (for pre- and post-vaccine CD8+ T cell populations) level (Robins, H., et al., J. Immunol. Methods, 375, 14-19, 2012; Carlson, C. S., et al., Nat. Commun., 4, 2680, 2013). TCRβ V-, D-, J-genes of each CDR3 regions were defined using IMGT (ImMunoGeneTics)/Junctional algorithms and data uploaded into the ImmunoSeq Analyzer (Adaptive Biotechnologies) for analysis. Complete amino acid identity between the reference library and pre- and post-vaccine CD8 samples was required for assigning a TCRβ match. In the reference library, TCRβ clonotypes with frequencies above 0.1% (>100-fold sequencing depth) were set as a threshold for identification of neoantigen-specific TCRβ CDR3 sequences within pre- and post-vaccine CD8+ T cell populations.
Reference T cell receptor-β (TCRβ) complementarity-determining region 3 (CDR3) sequence libraries (shown schematically in FIG. 42, Tables 7-11) were generated from short-term expanded sorted neoantigen-specific T cells (97-99% dextramer-positive), in Tables 7-11, TCRBV, TCRBD and TCRBJ are shown according to consensus nomenclature and CDR3 sequence for each clonotype indicated. Read counts indicates the number of times a given CDR3 sequence was found in the short term ex-vivo expanded neoantigen population. TCRβ clonotypes with frequencies above 0.1% (>100-fold sequencing depth), in reference library, were set as a threshold for identification of neoantigenspecific TCRβ CDR3 sequences within CD8+ T cell populations isolated from PBMC obtained pre- and post-vaccination. […] Frequencies are shown as percent of total reads. […]

IILVAVPHV
TCRβ clonotypes, post-vaccine (CD8+ T cells from PBMC after vaccination): 12 clonotypes
TCRβ clonotypes, pre-vaccine (CD8+ T cells from PBMC before vaccination): 2 clonotypes
TCRβ families represented (post-vaccine clonotypes): 8 TCRβ families
